Test results published in the supplement of paper PMC10307832.

Columns and labels:
Test in all cases: relative viability (nuclei count vs DMSO), 5 days (fraction); higher = more cells survive
[1] = compound: CCN(CCO)CCCC(C)Nc1ccnc2cc(Cl)ccc12 [Hydroxychloroquine] + Cc1nc(Nc2ncc(C(=O)Nc3c(C)cccc3Cl)s2)cc(N2CCN(CCO)CC2)n1 [Dasatinib] (partner 0.075 µM)
Summary of the method: (§1)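 A single step with final 0.05% Triton X-100, 1% formaldehyde and 1 ug/ml Hoechst fixed the cells and stained nuclei 5 days after treatment. Lung cancer cell lines in 1536-well plates had been treated by pin tool the day after seeding with one drug alone or a fixed anchor-drug dose plus five library-drug doses (not always all listed) in √10 steps, and nuclei were counted on 4× images. Relative viability is the ratio of nuclei in treated wells to nuclei in vehicle wells, taken as the median of duplicate plates.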

[2] = compound: CCN(CCO)CCCC(C)Nc1ccnc2cc(Cl)ccc12 [Hydroxychloroquine] + Nc1nc2[nH]cc(CCc3ccc(C(=O)N[C@@H](CCC(=O)O)C(=O)O)cc3)c2c(=O)[nH]1 [Pemetrexed] (partner 0.2 µM)
Summary of the method: as §1

[3] = compound: CCN(CCO)CCCC(C)Nc1ccnc2cc(Cl)ccc12 [Hydroxychloroquine] + CC(=O)c1c(C)c2cnc(Nc3ccc(N4CCNCC4)cn3)nc2n(C2CCCC2)c1=O [Palbociclib] (partner 0.5 µM)
Summary of the method: as §1

[4] = compound: CCN(CCO)CCCC(C)Nc1ccnc2cc(Cl)ccc12 [Hydroxychloroquine] + O=C(CCCCCCC(=O)Nc1ccccc1)NO [Vorinostat] (partner 1 µM)
Summary of the method: as §1

Cell Line | relative viability ([1]; first compound 0.5 µM) | relative viability ([1]; first compound 1.581 µM) | relative viability ([1]; first compound 5 µM) | relative viability ([1]; first compound 15.81 µM) | relative viability ([1]; first compound 50 µM) | relative viability ([2]; first compound 0.5 µM) | relative viability ([2]; first compound 1.581 µM) | relative viability ([2]; first compound 5 µM) | relative viability ([2]; first compound 15.81 µM) | relative viability ([2]; first compound 50 µM) | relative viability ([3]; first compound 0.5 µM) | relative viability ([3]; first compound 1.581 µM) | relative viability ([3]; first compound 5 µM) | relative viability ([3]; first compound 15.81 µM) | relative viability ([3]; first compound 50 µM) | relative viability ([4]; first compound 0.5 µM) | relative viability ([4]; first compound 1.581 µM) | relative viability ([4]; first compound 5 µM) | relative viability ([4]; first compound 15.81 µM) | relative viability ([4]; first compound 50 µM)
RERF-LC-KJ | 0.71 | 0.731 | 0.793 | 0.734 | 1.02 | 0.448 | 0.466 | 0.457 | 0.489 | 0.467 | 0.838 | 1.16 | 1.03 | 1.12 | 1.06 | 0.696 | 0.607 | 0.631 | 0.692 | 0.677
SK-LU-1 | 0.214 | 0.168 | 0.174 | 0.16 | 0.17 | 1.02 | 0.876 | 0.953 | 1.11 | 1.03 | 0.381 | 0.382 | 0.432 | 0.361 | 0.431 | 0.779 | 0.719 | 0.804 | 0.799 | 0.643
SK-MES-1 | 0.342 | 0.306 | 0.388 | 0.37 | 0.339 | 1.03 | 0.73 | 1.02 | 1.05 | 0.945 | 0.365 | 0.319 | 0.332 | 0.368 | 0.343 | 1.33 | 0.882 | 1.2 | 1.23 | 1.27
SW 900 | 0.586 | 0.574 | 0.671 | 0.528 | 0.559 | 0.43 | 0.47 | 0.448 | 0.457 | 0.444 | 0.5 | 0.502 | 0.568 | 0.597 | 0.657 | 0.532 | 0.535 | 0.504 | 0.382 | 0.505
SW 1573 | 0.465 | 0.379 | 0.506 | 0.414 | 0.676 | 0.892 | 0.686 | 0.794 | 0.86 | 0.758 | 0.369 | 0.359 | 0.374 | 0.34 | 0.38 | 0.689 | 0.627 | 0.878 | 0.734 | 0.951
UMC-11 |  | 0.504 | 0.473 | 0.628 | 0.6 | 0.751 | 0.751 | 0.826 | 0.976 | 0.825 | 0.285 | 0.304 | 0.413 | 0.311 | 0.305 | 0.4 | 0.314 | 0.387 | 0.393 | 0.457
